Here are results for two compounds from US20140163099A1, “ANTIMICROBIAL COMPOSITION” (TAKASAGO INTERNATIONAL CORPORATION, priority 2011, published 2014).

What all share (assay type): cell-based
Assay [1] relates to Corynebacterium minutissimum (NBRC15361T). Kind of assay: Growth inhibition activity (MIC, agar) against aerobic bacteria. To be noted: strain NBRC15361T; Mueller Hinton Agar, 37 degrees C. overnight. Here is the method:
(§1) In the present invention, the growth inhibition activity, which is an indicator of the antimicrobial activity, is evaluated by determining the Minimum Inhibitory Concentration (MIC) with an agar or liquid medium.
(§2) In the test for the growth inhibition activity, the following strains were used as skin-related bacteria: • Staphylococcus epidermidis: Staphylococcus epidermidis (JCM2414T and ATCC 12228) • Staphylococcus aureus: Staphylococcus aureus (NBRC12732 and JCM2151) • Skin indigenous bacteria which introduce a superficial infection: Corynebacterium minutissimum (NBRC15361T) • Armpit odor-causing bacteria: Corynebacterium xerosis (JCM1324)
(§3) The test strains were cultured in the liquid medium which the Bioresource center recommends, and then the test strains were subcultured to a Mueller Hinton Broth (Difco) at 30 degrees C. The grown bacteria were diluted to 10^6 CFU/ml with saline to adjust the bacteria fluids for inoculation.
(§4) Furthermore, in order to examine the growth inhibition activities against the bacteria by the above cooling agents, the concentration of the cooling agents: (3S)-CA20, (3R)-CA20, CA1, CA5, CA15, CA55 or CA MGH was diluted with ethanol to the required level of concentration for the determining the Minimum Inhibitory Concentration to produce the sample liquids.
(§5) Next, 100 μL of each sample liquid was added to 10 mL of a Mueller Hinton Agar (Difco) agar medium solution in a soluble state, and each agar medium solution was poured into a petri dish and solidified to prepare test plates having several concentrations of the sample liquids (several concentrations of the above cooling agents). Subsequently, 5 μL of the above bacteria fluids for inoculation were stamped on the test plates, and then the test plates were cultured at 37 degrees C. overnight.
(§6) In this way, the growth inhibition activities by (3S)-CA20, (3R)-CA20, CA1, CA5, CA15, CA55, CA MGH were examined. The minimum concentration of the cooling agent in which the growth of bacteria could not be confirmed was considered as the MIC (Minimum Inhibitory Concentration).
(§7) The minimum concentration of the cooling agent in which the grown strain could not be confirmed was considered as the MIC (Minimum Inhibitory Concentration).

Assay [2] concerns Corynebacterium xerosis (JCM1324). Described as above. To be noted: strain JCM1324; Mueller Hinton Agar, 37 degrees C. overnight. Here is the method:
as §1, §2, §3, §4, §5, §6, §7

Assay [3] has as its system Staphylococcus aureus (JCM2151). The description is as above. To be noted: strain JCM2151; Mueller Hinton Agar, 37 degrees C. overnight. Here is the method:
as §1, §2, §3, §4, §5, §6, §7

The test system of assay [4] is Staphylococcus aureus (NBRC12732). Described as above. To be noted: strain NBRC12732; Mueller Hinton Agar, 37 degrees C. overnight. Here is the method:
as §1, §2, §3, §4, §5, §6, §7

Assay [5] deals with Staphylococcus epidermidis (JCM2414T). Described as above. To be noted: strain JCM2414T; Mueller Hinton Agar, 37 degrees C. overnight. Here is the method: as §1, §2, §3, §4, §5, §6, §7
Assay [6] concerns Bacillus subtilis (NBRC3134). The assay is described as above. Particulars: strain NBRC3134; Mueller Hinton Agar, 37 degrees C. overnight. Here is the method:
as §1
(§8) Furthermore, the following bacteria were also used as other general aerobic bacteria: • Escherichia coli: Escherichia coli (NBRC3972) • Pseudomonas aeruginosa: Pseudomonas aeruginosa (NBRC13275) • Bacteria in intestines: Proteus vulgaris (NBRC3167) • Pneumobacillus: Klebsiella pneumoniae (NBRC13277) • Bacillus subtilis: Bacillus subtilis (NBRC3134)
as §3, §4, §5, §6, §7

The subject of assay [7] is Escherichia coli (NBRC3972). The description is as above. Particulars: strain NBRC3972; Mueller Hinton Agar, 37 degrees C. overnight. Here is the method: as §1, §8, §3, §4, §5, §6, §7
Assay [8] relates to Klebsiella pneumoniae (NBRC13277). Described as above. Particulars: strain NBRC13277; Mueller Hinton Agar, 37 degrees C. overnight. Here is the method:
as §1, §8, §3, §4, §5, §6, §7

For assay [9], the system named is Proteus vulgaris (NBRC3167). The assay is described as above. Particulars: strain NBRC3167; Mueller Hinton Agar, 37 degrees C. overnight. Here is the method: as §1, §8, §3, §4, §5, §6, §7
Assay [10] deals with Pseudomonas aeruginosa (NBRC13275). The assay is described as above. Particulars: strain NBRC13275; Mueller Hinton Agar, 37 degrees C. overnight. Here is the method: as §1, §8, §3, §4, §5, §6, §7
The subject of assay [11] is Actinomyces naeslundii (JCM8350). Briefly: Growth inhibition activity (MIC, agar) against anaerobic bacteria. To be noted: strain JCM8350; Trypticase Soy Broth agar, 37 degrees C. for 3 days. Here is the method:
as §1
(§9) In the test for growth inhibition activity, the following strains were used: • Acne bacteria: Propionibacterium acnes (JCM6473) and (ATCC6919) • Abscess bacteria: Bacteroides fragilis (GAI5560) • Cavity-causing bacteria: Streptococcus mutans (JCM5175), Actinomyces naeslundii (JCM8350) and Actinomyces viscosus (JCM8352) • Periodontal pathogen: Fusobacterium nucleatum (JCM6328), Porphyromonas gingivalis (JCM8525), Prevotella nigrescens (JCM6322)
(§10) The test strains were cultured in a GAM medium (Nissui Pharmaceutical Co., LTD), a Schaedler Broth (BBL) or a Trypticase Soy Broth (BBL) liquid medium, and then the grown bacteria were diluted in saline to prepare turbidity 0.5 McFarland of the bacteria fluids for inoculation. The bacteria were cultured at 37 degrees C. for 3 days under an anaerobic condition by using AnaeroPack® from MGC.
(§11) Furthermore, in order to examine the growth inhibition activities against the bacteria by the above cooling agent, the concentration of the cooling agents: (3S)-CA20, (3R)-CA20, CA1, CA5, CA15, CA55 or CA MGH was diluted with ethanol to the required level of concentrations for the determining the Minimum Inhibitory Concentration to produce the sample liquids.
(§12) Next, 100 μL of each sample liquid was added to 10 mL of a Trypticase Soy Broth agar medium solution in a soluble state, and each agar medium solution was poured into a petri dish and solidified, to prepare the test plates. Subsequently, 5 μL of above the bacteria fluids for inoculation were stamped on the test plates, and then the test plates were cultured at 37 degrees C. for 3 days.
(§13) The minimum concentration of the cooling agent in which the growth of bacteria could not be confirmed was considered as the MIC (Minimum Inhibitory Concentration).
as §13

The subject of assay [12] is Actinomyces viscosus (JCM8352). The description is as above. Particulars: strain JCM8352; Trypticase Soy Broth agar, 37 degrees C. for 3 days. Here is the method:
as §1, §9, §10, §11, §12, §13, §13

In assay [13] the test system is Bacteroides fragilis (GAI5560). The description is as above. To be noted: strain GAI5560; Trypticase Soy Broth agar, 37 degrees C. for 3 days. Here is the method: as §1, §9, §10, §11, §12, §13, §13
The test system of assay [14] is Porphyromonas gingivalis (JCM8525). The description is as above. To be noted: strain JCM8525; Trypticase Soy Broth agar, 37 degrees C. for 3 days. Here is the method:
as §1, §9, §10, §11, §12, §13, §13

Assay [15] concerns Prevotella nigrescens (JCM6322). Described as above. Particulars: strain JCM6322; Trypticase Soy Broth agar, 37 degrees C. for 3 days. Here is the method:
as §1, §9, §10, §11, §12, §13, §13

The subject of assay [16] is Propionibacterium acnes (ATCC6919). Described as above. To be noted: strain ATCC6919; Trypticase Soy Broth agar, 37 degrees C. for 3 days. Here is the method: as §1, §9, §10, §11, §12, §13, §13
In assay [17] the test system is Propionibacterium acnes (JCM6473). Described as above. To be noted: strain JCM6473; Trypticase Soy Broth agar, 37 degrees C. for 3 days. Here is the method:
as §1, §9, §10, §11, §12, §13, §13

Assay [18] concerns Streptococcus mutans (JCM5175). The description is as above. Particulars: strain JCM5175; Trypticase Soy Broth agar, 37 degrees C. for 3 days. Here is the method: as §1, §9, §10, §11, §12, §13, §13

Turning to `CC(O)CC(=O)OC1CC(C)CCC1C(C)C` [(3R)-CA20, menthyl 3-hydroxybutanoate], the “MIC (Minimum Inhibitory Concentration)” value is 200 ppm in [1]; 100 ppm in assay [2]; 100 ppm in assay [3]; 200 ppm in [4]; 200 ppm in assay [5]; 200 ppm in assay [6]. The “MIC (Minimum Inhibitory Concentration)” value in assay [7] is on record as more than 1600 ppm; in assay [8], 200 ppm; in [9], more than 1600 ppm; in [10], more than 1600 ppm; in assay [11], 200 ppm; in [12] it was 100 ppm. Also, the “MIC (Minimum Inhibitory Concentration)” value came to 100 ppm in assay [13]; 100 ppm in assay [14]; 200 ppm in [15]; 400 ppm in assay [16]; 200 ppm in assay [17]; 200 ppm in [18].
As for “N-alkyl-p-menthane-3-carboxamide [WS-3, reference compound]”, the “MIC (Minimum Inhibitory Concentration)” value in [1], in assay [2], in assay [3], in assay [4], in assay [5] and in assay [6] was more than 1600 ppm throughout. Also, the “MIC (Minimum Inhibitory Concentration)” value in [7], in assay [8], in assay [9], in [10], in assay [11] and in assay [12] was more than 1600 ppm in each case. In addition, the “MIC (Minimum Inhibitory Concentration)” value was more than 1600 ppm in [13]; 200 ppm in assay [14]; more than 1600 ppm in [15]; more than 1600 ppm in [16]; more than 1600 ppm in assay [17]; more than 1600 ppm in assay [18].
